Reference: patent US9980943B2, “Methods of treating muscular dystrophy” (BOARD OF REGENTS OF THE NEVADA SYSTEM OF HIGHER EDUCATION, …, priority 2013, dated 2018)
Values joined by “and” are separate entries in the source; they are usually repeats but may differ in a detail not shown here. Equal values may be shown once.

Experiments:
Type in all cases: cell-based, mouse
[1] = tested on: α7 integrin (LacZ reporter in α7βgal+/− myoblasts); assay: Myoblast α7+/LacZ integrin FDG assay (Burkin assay in myoblasts, 96-well); conditions: 96-well
[2] = tested on: α7 integrin (LacZ reporter in α7+/LacZ myotubes); assay: Myotube α7 integrin FDG assay (Burkin assay in myotubes, 96-well); conditions: for Burkin Assay in Myotubes, value relative to DMSO: SU9516 analogs, 96-well, N=3-6
[3] = tested on: β-galactosidase in CMV-LacZ C2C12 myoblasts; assay: CMV-LacZ secondary screen in C2C12 myoblasts (β-Gal stabilizing assay); conditions: for CMV-LACZ in Myoblasts, value relative to DMSO: SU9516 analogs, C2C12 CMV-LacZ, N=2; for CMV-LACZ in Myoblasts (β-galactosidase activity relative to DMSO): CMV-LacZ C2C12 myoblasts
Procedure, shortened: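 C2C12 myoblasts stably carrying a linearized CMV-driven LacZ construct, clone chosen by β-gal level in the myoblast FDG assay. Compounds tested in 96-well dose-response at 0.5, 1, 5, 10, 20 and 40 μM, N=2 replicates per point, to detect β-gal stabilization.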

[4] = tested on: β-galactosidase in CMV-LacZ C2C12 myotubes; assay: CMV-LacZ secondary screen in C2C12 myotubes (β-Gal stabilizing assay); conditions: for CMV-LACZ in Myotubes, value relative to DMSO: SU9516 analogs, C2C12 CMV-LacZ, N=2; for CMV-LACZ in Myotubes, signal relative to DMSO: C2C12 CMV-LacZ myotubes, fold relative to DMSO
Procedure, shortened: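 β-gal stabilization was measured in C2C12 myoblasts or myotubes stably transfected with a CMV-driven LacZ construct, using the FDG β-gal assay. Compounds were tested in dose-response at 0.5, 1, 5, 10, 20 and 40 μM, with two replicates per point.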

For `COc1ccc2c(c1)C(=C(C#N)C#N)C(=O)N2CCc1ccccc1` [MLS000763074-01], the “Burkin Assay in Myoblasts, value relative to DMSO” value ([1]; 0.5 uM, SU9516 analogs, N=3-6) was 1.199, the “Burkin Assay in Myoblasts, value relative to DMSO” value ([1]; 1 uM, SU9516 analogs, N=3-6) was 1.067 and the “Burkin Assay in Myoblasts, value relative to DMSO” value ([1]; 5 uM, SU9516 analogs, N=3-6) was 0.843. The “Burkin Assay in Myoblasts, value relative to DMSO” value ([1]; 10 uM, SU9516 analogs, N=3-6) was 1.134, the “Burkin Assay in Myoblasts, value relative to DMSO” value ([1]; 20 uM, SU9516 analogs, N=3-6) was 0.6586 and the “Burkin Assay in Myoblasts, value relative to DMSO” value ([1]; 40 uM, SU9516 analogs, N=3-6) was 0.6085. For the same compound, the “Burkin Assay in Myotubes, value relative to DMSO” value ([2]; 0.5 uM) was 1.0274, the “Burkin Assay in Myotubes, value relative to DMSO” value ([2]; 1 uM) was 1.128 and the “Burkin Assay in Myotubes, value relative to DMSO” value ([2]; 5 uM) was 1.043. The “Burkin Assay in Myotubes, value relative to DMSO” value ([2]; 10 uM) was 0.907, the “Burkin Assay in Myotubes, value relative to DMSO” value ([2]; 20 uM) was 0.1921 and the “Burkin Assay in Myotubes, value relative to DMSO” value ([2]; 40 uM) was 0.2622. The “CMV-LACZ in Myoblasts, value relative to DMSO” value ([3]; 0.5 uM) was 0.8431, the “CMV-LACZ in Myoblasts, value relative to DMSO” value ([3]; 1 uM) was 0.8256 and the “CMV-LACZ in Myoblasts, value relative to DMSO” value ([3]; 5 uM) was 1.1447. For the same compound, the “CMV-LACZ in Myoblasts, value relative to DMSO” value ([3]; 10 uM) was 1.1966, the “CMV-LACZ in Myoblasts, value relative to DMSO” value ([3]; 20 uM) was 1.2981 and the “CMV-LACZ in Myoblasts, value relative to DMSO” value ([3]; 40 uM) was 1.6644. The “CMV-LACZ in Myotubes, value relative to DMSO” value ([4]; 0.5 uM) was 1.0089, the “CMV-LACZ in Myotubes, value relative to DMSO” value ([4]; 1 uM) was 0.8593 and the “CMV-LACZ in Myotubes, value relative to DMSO” value ([4]; 5 uM) was 1.0487. For the same compound, the “CMV-LACZ in Myotubes, value relative to DMSO” value ([4]; 10 uM) was 0.9645, the “CMV-LACZ in Myotubes, value relative to DMSO” value ([4]; 20 uM) was 1.7671 and the “CMV-LACZ in Myotubes, value relative to DMSO” value ([4]; 40 uM) was 1.9682.

`CC(C(=O)Nc1ccc(C#N)cc1)N(C)CC(=O)Nc1cccc(F)c1` (stereo not drawn) [MLS001033255-01] was tested, and the “Burkin Assay in Myoblasts, signal relative to DMSO” value ([1]; 0.5 uM, α7+/LacZ myoblasts) was 1.013, the “Burkin Assay in Myoblasts, value relative to DMSO” value ([1]; 0.5 uM, α7+/LacZ myoblasts) was 0.9467 and the “Burkin Assay in Myoblasts, signal relative to DMSO” value ([1]; 1 uM, α7+/LacZ myoblasts) was 0.9373. For the same compound, the “Burkin Assay in Myoblasts, value relative to DMSO” value ([1]; 1 uM, α7+/LacZ myoblasts) was 0.9407, the “Burkin Assay in Myoblasts, signal relative to DMSO” value ([1]; 5 uM, α7+/LacZ myoblasts) was 1.017 and the “Burkin Assay in Myoblasts, value relative to DMSO” value ([1]; 5 uM, α7+/LacZ myoblasts) was 0.9509. For the same compound, the “Burkin Assay in Myoblasts, signal relative to DMSO” value ([1]; 10 uM, α7+/LacZ myoblasts) was 1.124, the “Burkin Assay in Myoblasts, value relative to DMSO” value ([1]; 10 uM, α7+/LacZ myoblasts) was 0.9542 and the “Burkin Assay in Myoblasts, signal relative to DMSO” value ([1]; 20 uM, α7+/LacZ myoblasts) was 0.985. For the same compound, the “Burkin Assay in Myoblasts, value relative to DMSO” value ([1]; 20 uM, α7+/LacZ myoblasts) was 0.7962, the “Burkin Assay in Myoblasts, signal relative to DMSO” value ([1]; 40 uM, α7+/LacZ myoblasts) was 0.8279 and the “Burkin Assay in Myoblasts, value relative to DMSO” value ([1]; 40 uM, α7+/LacZ myoblasts) was 0.799. The “Burkin Assay in Myotubes (signal relative to DMSO)” value ([2]; 0.5 uM) was 0.9678, the “Burkin Assay in Myotubes (signal relative to DMSO)” value ([2]; 1 uM) was 0.9526 and the “Burkin Assay in Myotubes (signal relative to DMSO)” value ([2]; 5 uM) was 1.213. The “Burkin Assay in Myotubes (signal relative to DMSO)” value ([2]; 10 uM) was 0.997, the “Burkin Assay in Myotubes (signal relative to DMSO)” value ([2]; 20 uM) was 0.8683 and the “Burkin Assay in Myotubes (signal relative to DMSO)” value ([2]; 40 uM) was 1.04. For the same compound, the “Burkin Assay in Myotubes, α7 integrin LacZ reporter signal relative to DMSO” value ([2]; 0.5 uM) was 0.91, the “Burkin Assay in Myotubes, α7 integrin LacZ reporter signal relative to DMSO” value ([2]; 1 uM) was 0.8188 and the “Burkin Assay in Myotubes, α7 integrin LacZ reporter signal relative to DMSO” value ([2]; 5 uM) was 1.086. For the same compound, the “Burkin Assay in Myotubes, α7 integrin LacZ reporter signal relative to DMSO” value ([2]; 10 uM) was 1.246, the “Burkin Assay in Myotubes, α7 integrin LacZ reporter signal relative to DMSO” value ([2]; 20 uM) was 0.8337 and the “Burkin Assay in Myotubes, α7 integrin LacZ reporter signal relative to DMSO” value ([2]; 40 uM) was 1.232. For the same compound, the “CMV-LACZ in Myoblasts (β-galactosidase activity relative to DMSO)” value ([3]; 0.5 uM) was 0.7590, the “CMV-LACZ in Myoblasts (β-galactosidase activity relative to DMSO)” value ([3]; 1 uM) was 1.0723 and the “CMV-LACZ in Myoblasts (β-galactosidase activity relative to DMSO)” value ([3]; 5 uM) was 0.8766. For the same compound, the “CMV-LACZ in Myoblasts (β-galactosidase activity relative to DMSO)” value ([3]; 10 uM) was 1.0219, the “CMV-LACZ in Myoblasts (β-galactosidase activity relative to DMSO)” value ([3]; 20 uM) was 1.1919 and the “CMV-LACZ in Myoblasts (β-galactosidase activity relative to DMSO)” value ([3]; 40 uM) was 0.7905. For the same compound, the “CMV-LACZ in Myotubes, signal relative to DMSO” value ([4]; 0.5 uM) was 1.1038, the “CMV-LACZ in Myotubes, signal relative to DMSO” value ([4]; 1 uM) was 1.1438 and the “CMV-LACZ in Myotubes, signal relative to DMSO” value ([4]; 5 uM) was 0.9525 and 0.8423. For the same compound, the “CMV-LACZ in Myotubes, signal relative to DMSO” value ([4]; 10 uM) was 1.0297 and 1.045, the “CMV-LACZ in Myotubes, signal relative to DMSO” value ([4]; 20 uM) was 0.9930 and 1.013 and the “CMV-LACZ in Myotubes, signal relative to DMSO” value ([4]; 40 uM) was 0.7740 and 1.236.
